In US20220388964A1 (HiberCell, Inc., priority 2019, published 2022):

molecular target: GCN2 (Homo sapiens, UniProt Q9P2K8); test: TR-FRET biochemical assay for inhibition of GCN2 (Example 106, for Example 1-4BB); details: Table 8
Sequence (Q9P2K8 whole entry): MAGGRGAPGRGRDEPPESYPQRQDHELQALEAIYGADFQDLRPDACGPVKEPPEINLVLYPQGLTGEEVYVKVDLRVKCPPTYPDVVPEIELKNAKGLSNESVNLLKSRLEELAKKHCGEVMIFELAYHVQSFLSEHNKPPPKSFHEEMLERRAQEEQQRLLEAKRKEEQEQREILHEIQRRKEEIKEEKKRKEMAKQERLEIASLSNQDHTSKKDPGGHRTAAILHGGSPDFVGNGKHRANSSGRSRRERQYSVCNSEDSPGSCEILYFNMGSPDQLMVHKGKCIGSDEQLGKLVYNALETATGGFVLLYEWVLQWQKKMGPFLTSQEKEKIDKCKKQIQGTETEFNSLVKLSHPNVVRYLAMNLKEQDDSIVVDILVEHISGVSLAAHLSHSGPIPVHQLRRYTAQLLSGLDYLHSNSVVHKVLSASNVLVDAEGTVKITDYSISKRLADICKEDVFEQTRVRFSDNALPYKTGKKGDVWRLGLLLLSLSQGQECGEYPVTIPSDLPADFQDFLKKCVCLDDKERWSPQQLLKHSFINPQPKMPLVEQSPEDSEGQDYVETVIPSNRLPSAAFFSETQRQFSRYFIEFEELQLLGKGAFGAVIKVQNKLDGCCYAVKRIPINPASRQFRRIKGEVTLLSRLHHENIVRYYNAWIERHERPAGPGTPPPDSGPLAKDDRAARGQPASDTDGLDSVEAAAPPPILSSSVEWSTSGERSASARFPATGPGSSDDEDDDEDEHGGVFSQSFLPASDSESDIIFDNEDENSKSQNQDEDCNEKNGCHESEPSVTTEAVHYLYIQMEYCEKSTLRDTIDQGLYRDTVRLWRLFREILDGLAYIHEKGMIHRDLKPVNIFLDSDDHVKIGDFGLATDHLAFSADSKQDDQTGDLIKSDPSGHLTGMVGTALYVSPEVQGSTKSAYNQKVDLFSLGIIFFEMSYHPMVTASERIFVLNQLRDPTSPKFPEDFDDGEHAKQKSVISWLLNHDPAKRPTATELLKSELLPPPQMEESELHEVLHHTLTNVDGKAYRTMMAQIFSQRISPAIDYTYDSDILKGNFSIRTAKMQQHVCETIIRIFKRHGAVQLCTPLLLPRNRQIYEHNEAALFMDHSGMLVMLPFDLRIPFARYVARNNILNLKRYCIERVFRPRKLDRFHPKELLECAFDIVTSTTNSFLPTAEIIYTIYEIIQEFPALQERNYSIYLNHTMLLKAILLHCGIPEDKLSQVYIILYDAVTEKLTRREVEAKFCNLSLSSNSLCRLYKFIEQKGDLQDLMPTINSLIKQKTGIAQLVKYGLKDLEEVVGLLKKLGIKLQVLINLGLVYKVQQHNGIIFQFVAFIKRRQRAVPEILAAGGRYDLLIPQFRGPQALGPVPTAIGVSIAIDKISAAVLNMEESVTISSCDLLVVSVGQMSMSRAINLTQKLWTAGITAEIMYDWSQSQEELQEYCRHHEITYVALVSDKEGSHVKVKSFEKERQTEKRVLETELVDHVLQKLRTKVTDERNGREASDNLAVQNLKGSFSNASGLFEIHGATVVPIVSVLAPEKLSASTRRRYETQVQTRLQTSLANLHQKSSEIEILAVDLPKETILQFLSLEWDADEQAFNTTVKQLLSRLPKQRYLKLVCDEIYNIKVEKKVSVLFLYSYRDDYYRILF

Q: Which IC50 does the source give for Cn1cccc(S(=O)(=O)Nc2ccc(F)c(-c3ccc4c(-c5ncc[nH]5)n[nH]c4c3F)c2F)c1=O [Example 2AJ, N-(2,4-difluoro-3-(7-fluoro-3-(1H-imidazol-2-yl)-1H-indazol-6-yl)phenyl)-1-methyl-2-oxo-1,2-dihydro-pyridine-3-sulfonamide] here?
A: 2500 to 10000 nM

Q: COc1ncc(Cl)cc1S(=O)(=O)Nc1cccc(-c2ccc3c(-c4ncc[nH]4)n[nH]c3c2F)c1C#N [Example 2AD, 5-chloro-N-(2-cyano-3-(7-fluoro-3-(1H-imidazol-2-yl)-1H-indazol-6-yl)phenyl)-2-methoxypyridine-3-sulfonamide] was tested. Which IC50 did it give?
A: < 500 nM

Q: Which IC50 does the source give for O=S(=O)(Nc1ccc(F)c(-c2ccc3c(-c4ncc[nH]4)n[nH]c3c2F)c1F)c1ccccc1Cl [Example 2BP, 2-chloro-N-(2,4-difluoro-3-(7-fluoro-3-(1H-imidazol-2-yl)-1H-indazol-6-yl)phenyl)-benzenesulfonamide] here?
A: < 500 nM

Q: Which IC50 does the source give for O=S(=O)(Nc1ccc(F)c(-c2ccc3cn[nH]c3c2)c1F)c1cc(Cl)ccc1Cl [Example 2BX, 2,5-dichloro-N-(2,4-difluoro-3-(1H-indazol-6-yl)phenyl)benzenesulfonamide] here?
A: 500 to 2500 nM

Q: Which IC50 does the source give for COc1ncc(F)cc1S(=O)(=O)Nc1ccc(F)c(-c2ccc3c(-c4ncc[nH]4)n[nH]c3c2F)c1F [Example 2V, 5-fluoro-N-(2,4-difluoro-3-(7-fluoro-3-(1H-imidazol-2-yl)-1H-indazol-6-yl)phenyl)-2-methoxy-pyridine-3-sulfonamide] here?
A: < 500 nM

Q: Which IC50 does the source give for COc1ccc(Cl)c(S(=O)(=O)Nc2ccc(F)c(-c3ccc4c(-c5ncc[nH]5)n[nH]c4c3F)c2F)c1 [Example 2BA, 2-chloro-N-(2,4-difluoro-3-(7-fluoro-3-(1H-imidazol-2-yl)-1H-indazol-6-yl)phenyl)-5-methoxybenzene-sulfonamide] here?
A: < 500 nM

Q: COc1ncc(Cl)cc1S(=O)(=O)Nc1ccc(F)c(-c2ccc3c(C(=O)NCC(C)C)n[nH]c3c2F)c1F [Example 2CJ, 6-(3-((5-chloro-2-methoxy-pyridine)-3-sulfonamido)-2,6-difluorophenyl)-7-fluoro-N-isobutyl-1H-indazole-3-carboxamide] was tested. Which IC50 did it give?
A: < 500 nM

Q: With O=S(=O)(Nc1ccc(F)c(-c2ccc3c(-c4ncc[nH]4)n[nH]c3c2F)c1F)c1cc(Cl)ccc1F [Example 2BD, 5-chloro-N-(2,4-difluoro-3-(7-fluoro-3-(1H-imidazol-2-yl)-1H-indazol-6-yl)phenyl)-2-fluorobenzenesulfonamide] as the molecule, how does the IC50 read?
A: < 500 nM

same assay, conditions: Table 9

Q: Which IC50 does the source give for Cc1ncc(F)cc1S(=O)(=O)Nc1ccc(F)c(-c2ccc3c(-c4cccc(=O)[nH]4)n[nH]c3c2F)c1F [Example 15, N-(2,4-Difluoro-3-(7-fluoro-3-(6-oxo-1,6-dihydropyridin-2-yl)-1H-indazol-6-yl)phenyl)-5-fluoro-2-methylpyridine-3-sulfonamide] here?
A: < 500 nM

Q: Cc1ncc(F)cc1S(=O)(=O)Nc1cc(C#N)cc(-c2ccc3c(-c4ncc[nH]4)n[nH]c3c2F)c1F [Example 3CC, N-(5-cyano-2-fluoro-3-(7-fluoro-3-(1H-imidazol-2-yl)-1H-indazol-6-yl)phenyl)-5-fluoro-2-methylpyridine-3-sulfonamide] was tested. Which IC50 did it give?
A: > 10000 nM

Q: With COc1ncc(Cl)cc1S(=O)(=O)Nc1cc(F)cc(-c2ccc3c(C(=O)N[C@H]4CCN(C)C4)n[nH]c3c2F)c1F [Example 3BM, 6-(3-((5-chloro-2-methoxy-pyridine)-3-sulfonamido)-2,5-difluorophenyl)-7-fluoro-N-((S)-1-methylpyrrolidin-3-yl)-1H-indazole-3-carboxamide] as the molecule, how does the IC50 read?
A: < 500 nM

Q: For CNC(=O)c1n[nH]c2c(F)c(-c3c(F)ccc(NS(=O)(=O)c4cc(F)cnc4OC)c3F)ccc12 [Example 3S, 6-(2,6-difluoro-3-((5-fluoro-2-methoxypyridine)-3-sulfonamido)phenyl)-7-fluoro-N-methyl-1H-indazole-3-carboxamide], which IC50 is on record?
A: < 500 nM

Q: Which IC50 does the source give for COc1ncc(C#N)cc1S(=O)(=O)Nc1cc(F)cc(-c2ccc3c(C(=O)NCCCN(C)C)n[nH]c3c2F)c1F [Example 3CE, 6-(3-((5-cyano-2-methoxy-pyridine)-3-sulfonamido)-2,5-difluorophenyl)-N-(3-(dimethylamino)propyl)-7-fluoro-1H-indazole-3-carboxamide] here?
A: > 10000 nM

Q: With COc1ncc(F)cc1S(=O)(=O)Nc1ccc(F)c(-c2ccc3c(-c4nc(Cl)c[nH]4)n[nH]c3c2F)c1F [Example 17, N-(3-(3-(4-Chloro-1H-imidazol-2-yl)-7-fluoro-1H-indazol-6-yl)-2,4-difluorophenyl)-5-fluoro-2-methoxypyridine-3-sulfonamide] as the molecule, how does the IC50 read?
A: < 500 nM

Q: With COc1ncc(F)cc1S(=O)(=O)Nc1ccc(F)c(-c2ccc3c(C(=O)NC[C@@H](O)CO)n[nH]c3c2F)c1F [Example 3AH, 6-(2,6-difluoro-3-((5-fluoro-2-methoxypyridine)-3-sulfonamido)phenyl)-N-((R)-2,3-dihydroxypropyl)-7-fluoro-1H-indazole-3-carboxamide] as the molecule, how does the IC50 read?
A: < 500 nM

Q: COc1ncc(F)cc1S(=O)(=O)Nc1ccc(F)c(-c2ccc3c(C(=O)N[C@H]4CCN(C)C4)n[nH]c3c2F)c1F [Example 3AC, 6-(3-((5-fluoro-2-methoxy-pyridine)-3-sulfonamido)-2,6-difluorophenyl)-7-fluoro-N-((S)-1-methylpyrrolidin-3-yl)-1H-indazole-3-carboxamide] was tested. Which IC50 did it give?
A: 500 to 2500 nM

Q: For Cc1ncc(F)cc1S(=O)(=O)Nc1cc(F)cc(-c2ccc3c(-c4ncc[nH]4)n[nH]c3c2F)c1F [Example 27, N-(2,5-Difluoro-3-(7-fluoro-3-(1H-imidazol-2-yl)-1H-indazol-6-yl)phenyl)-5-fluoro-2-methylpyridine-3-sulfonamide], which IC50 is on record?
A: < 500 nM

Q: How did the IC50 turn out when Cc1ncc(F)cc1S(=O)(=O)Nc1ccc(F)c(-c2ccc3c(C(N)=O)n[nH]c3c2F)c1F [Example 3BA, 6-(2,6-difluoro-3-((5-fluoro-2-methylpyridine)-3-sulfon-amido)phenyl)-7-fluoro-1H-indazole-3-carboxamide] was run?
A: < 500 nM

Q: With COc1ncc(Cl)cc1S(=O)(=O)Nc1ccc(F)c(-c2ccc3c(C(=O)Nc4cn[nH]c4)n[nH]c3c2F)c1F [Example 3CQ, 6-(3-((5-chloro-2-methoxy-pyridine)-3-sulfonamido)-2,6-difluorophenyl)-7-fluoro-N-(1H-pyrazol-4-yl)-1H-indazole-3-carboxamide] as the molecule, how does the IC50 read?
A: < 500 nM

Q: Which IC50 does the source give for COc1ncc(F)cc1S(=O)(=O)Nc1cc(F)cc(-c2ccc3c(C(=O)N[C@H]4CCN(C)C4)n[nH]c3c2F)c1F [Example 3BT, 6-(3-((5-fluoro-2-methoxy-pyridine)-3-sulfonamido)-2,5-difluorophenyl)-7-fluoro-N-((S)-1-methylpyrrolidin-3-yl)-1H-indazole-3-carboxamide] here?
A: 500 to 2500 nM

Q: With COc1ccc(NS(=O)(=O)c2cc(F)cnc2OC)c(F)c1-c1ccc2c(C(N)=O)n[nH]c2c1F [Example 3AO, 7-fluoro-6-(2-fluoro-3-((5-fluoro-2-methoxypyridine)-3-sulfonamido)-6-methoxy-phenyl)-1H-indazole-3-carboxamide] as the molecule, how does the IC50 read?
A: 500 to 2500 nM

Q: Which IC50 does the source give for COc1ncc(F)cc1S(=O)(=O)Nc1ncc(F)c(-c2ccc3c(C(N)=O)n[nH]c3c2)c1F [Example 3P, 6-(3,5-difluoro-2-((5-fluoro-2-methoxypyridine)-3-sulfonamido)pyridin-4-yl)-1H-indazole-3-carboxamide] here?
A: > 10000 nM

Q: Which IC50 does the source give for COc1ncc(CO)cc1S(=O)(=O)Nc1ccc(F)c(-c2ccc3c(C(=O)NCCCO)n[nH]c3c2F)c1F [Example 3CN, 6-(2,6-difluoro-3-((5-(hydroxylmethyl)-2-methoxy-pyridine)-3-sulfonamido)-phenyl)-7-fluoro-N-(3-hydroxypropyl)-1H-indazole-3-carboxamide] here?
A: 2500 to 10000 nM

Q: With COc1ncc(Cl)cc1S(=O)(=O)Nc1ccc(F)c(-c2ccc3c(C(=O)Nc4nn[nH]n4)n[nH]c3c2F)c1F [Example 3CU, 6-(3-((5-chloro-2-methoxy-pyridine)-3-sulfonamido)-2,6-difluorophenyl)-7-fluoro-N-(2H-tetrazol-5-yl)-1H-indazole-3-carboxamide] as the molecule, how does the IC50 read?
A: < 500 nM

Q: Cc1ccc(S(=O)(=O)Nc2ccc(F)c(-c3ccc4c(C(=O)Nc5cnn(C)c5)n[nH]c4c3F)c2F)c(C)n1 [Example 3DH, 6-(3-((2,6-dimethylpyridine)-3-sulfonamido)-2,6-difluoro-phenyl)-7-fluoro-N-(1-methyl-1H-pyrazol-4-yl)-1H-indazole-3-carboxamide] was tested. Which IC50 did it give?
A: < 500 nM

Q: How did the IC50 turn out when NC(=O)c1n[nH]c2c(F)c(-c3c(F)ccc(NS(=O)(=O)c4cc(F)cc5c4CCC5O)c3F)ccc12 (stereo not shown) [Example 4R] was run?
A: < 500 nM

Q: COc1ncc(Cl)cc1S(=O)(=O)Nc1ccc(F)c(-c2ccc3c(C(=O)Nc4cn[nH]n4)n[nH]c3c2F)c1F [Example 3DF, 6-(3-((5-chloro-2-methoxy-pyridine)-3-sulfonamido)-2,6-difluorophenyl)-7-fluoro-1H-(2H-1,2,3-triazol-4-yl)-1H-indazole-3-carboxamide] was tested. Which IC50 did it give?
A: 500 to 2500 nM

Q: Which IC50 does the source give for COc1ncc(Cl)cc1S(=O)(=O)Nc1cccc(-c2cc3[nH]nc(C(N)=O)c3cn2)c1F [Example 3BD, 6-(3-((5-chloro-2-methoxy-pyridine)-3-sulfonamido)-2-fluorophenyl)-1H-pyrazolo-[4,3-c]pyridine-3-carboxamide] here?
A: < 500 nM

Q: With COc1ncc(F)cc1S(=O)(=O)Nc1cc(F)cc(-c2ccc3c(C(N)=O)n[nH]c3c2F)c1F [Example 3AQ, 6-(2,5-difluoro-3-((5-fluoro-2-methoxypyridine)-3-sulfon-amido)phenyl)-7-fluoro-1H-indazole-3-carboxamide] as the molecule, how does the IC50 read?
A: < 500 nM

Q: Which IC50 does the source give for COc1ncc(Cl)cc1S(=O)(=O)Nc1cc(F)cc(-c2ccc3c(-c4ncc[nH]4)n[nH]c3c2F)c1F [Example 3C, 5-chloro-N-(2,5-difluoro-3-(7-fluoro-3-(1H-imidazol-2-yl)-1H-indazol-6-yl)phenyl)-2-methoxypyridine-3-sulfonamide] here?
A: < 500 nM

Q: For COc1ncc(F)cc1S(=O)(=O)Nc1ccc(F)c(-c2ccc3c(C(=O)Nc4ccc(=O)n(C)c4)n[nH]c3c2F)c1F [Example 3BP, 6-(2,6-difluoro-3-((5-fluoro-2-methoxypyridine)-3-sulfonamido)phenyl)-7-fluoro-N-(1-methyl-6-oxo-1,6-dihydropyridin-3-yl)-1H-indazole-3-carboxamide], which IC50 is on record?
A: < 500 nM
